Data reported in patent US11272706B2, “Anti-resistance method” (UPL LIMITED, priority 2017, dated 2022).
Converted amounts (≈) assume the structure as drawn. Like-named read-outs stand apart in the source and are kept apart here.

Tests used:
[1] = test system: Drechsiera tritici-repentis; assay: 50% inhibition of spore germination (CI50), five isolates, strobilurin fungicides; format: cell-based; details: for Reduction factor of the sensitivity, isolate 01/QTZ: CI50 of sensitivity reference 0.75 mg/L; for Reduction factor of the sensitivity, Average / Reduction factor of the sensitivity, isolate 02/ONX / Reduction factor of the sensitivity, isolate 03/HZT / Reduction factor of the sensitivity, isolate 04/GUA / Reduction factor of the sensitivity, isolate 05/CD: reference 0.75 mg/L
Protocol: However, the highest reduction of sensitivity of the Dtr to fungicides and what better explains the control failure claimed by producers is the CI50 obtained for QoIs fungicides (see Table 4).
Lowercase compare average in the column and capital letters in the line. Average of two experiments.
Taking as Cl50 standard of sensitivity, 0.75 mg/L (Table 4) obtained for pyraclostrobin, it is calculated the reduction factor of the sensitivity of the Dtr to QoIs fungicides (see Table 5).
Cl50 of sensitivity reference of 0.75 mg/L.
When the SRF is close to 1.0 there is no reduction of sensitivity. However, if >1 with different magnitude, it indicates reduced sensitivity of fungi to fungicides. In this case SRF ranged from 1.04 to >53 (see Table 5).

soybean rust [2] = assay: Cooperative tests of fungicides (Embrapa Soybean): soybean rust control over crops, FIGS. 1-6; format: in vivo, Phakopsora pachyrhizi; details: from regression equation over crops; starting crop differs per fungicide
From the text: An example that reinforces the reported fact is the gradual reduction of tebuconazole control over the crops using it covering the period beginning in 2004/05 to 2013/14 (as FIG. 1).
The results of cooperative tests of fungicides, coordinated by Embrapa Soybean, Londrina, can bring the answer to these questions. The following graphs of FIGS. 2, 3, 4 and 5 show the reduction of rust control by fungicide mixtures traditionally used in soybeans over the past crops.
FIG. 1. Reduced soybean rust control by tebuconazole over […]. (Source: Cooperative tests of fungicides).
FIG. 2. Control Reduction of soybean rust by cyproconazole+azoxystrobin mixture over six crops. (Source: Cooperative tests of fungicides).
FIG. 3. Control Reduction of soybean rust by cyproconazole+picoxystrobin mixture over six crops. (Source: Cooperative tests of fungicides).
FIG. 4. Reduction control of soybean rust by epoxiconazole+pyraclostrobin mixture over six crops. (Source: Cooperative tests of fungicides).
FIG. 5. Average reduction of soybean rust control by mixtures of cyproconazole+azoxystrobin, cyproconazole+picoxystrobin and epoxiconazole+pyraclostrobin over six crops. (Source: Cooperative tests of fungicides).
FIG. 6. Control Reduction of soybean rust for azoxystrobin over six crops. (Source: Cooperative tests of fungicides).

soybean rust [3] = details: 2013/14 crop; cited from earlier work
Drechsiera siccans = assay: 50% inhibition of mycelium growth (IC50), five isolates, DMI fungicides; format: cell-based
Protocol: In the 2003 wheat crop for the first time, there was complaint of leaf spot control failure after continuous use of fungicides DMI+QoI, for 20 years. Until that time there were few reports of the sensitivity of the fungus that is causal agent of yellow spot to fungicides (Stoke, 2006; Tonin, 2009; Beard et al, 2009; Patel et al, 2012). The reference concentrations of sensitivity of Dtr to fungicides found in the literature were 0.17 mg/L in average for the epoxiconazole, propiconazole and tebuconazole. […] Comparing these values with the sensitivity of isolates of Brazil proves the reduced sensitivity occurring here (see Table 3).
Average of two experiments.

soybean rust [4] = test system: soybean rust; parameters: Control of soybean rust, crop 2005/06 / Control of soybean rust, crop 2012/13: concentration or dose not given beside the values; details: cited from earlier work; for Reduction (%) of control: 2005/06 versus 2012/13 crop; for Control of soybean rust, crop 2005/06 / Control of soybean rust, crop 2012/13: applied preventively; for Control of soybean rust, crop 2005/06: 2005/06 crop; for Control of soybean rust, crop 2012/13: 2012/13 crop
soybean rust [5] = details: crop 2010/11, cited from earlier work; for Control (%): evaluated by AUDPC; for Severity (%): untreated control 74.0
[6] = test system: Dtr (Drechsiera tritici-repentis); details: literature value, cited from earlier work
wheat leaf spots = assay: Control of wheat leaf spots by DMI + QoI mixtures with or without mancozeb; format: in vivo, Drechsiera tritici-repentis; details: various locations in Brazil
From the text: (§1) However, its greatest contribution was proven when added to commercial blends bringing control to values of up to 80%, similar efficiency of mixtures “triazole+strobilurin” at the beginning of its use.
With the addition of mancozeb, by using the method anti-resistance described in the present invention, the control has been quite improved (33.3% also as shown in Table 8).

soybean rust [7] = assay: Field experiments at various locations in Brazil: mancozeb alone or added to commercial mixtures against soybean rust; format: in vivo, Phakopsora pachyrhizi; details: mancozeb applied alone
From the text: as §1
Therefore, the present invention used the same strategy as the solution to recover the original control levels (>80%) and make the useful life of the fungicides longer in controlling the target disease of the invention. This is because, mancozeb, being a multi-site protective fungicide and presenting a broad spectrum of action, will also contribute to the control of other diseases in soybean and also in wheat.
A study was conducted to determine the contribution of the mancozeb addition to mixtures of “strobilurin+triazoles.” The experiments were conducted in the field, in nine different locations, where it was determined the fungi toxicity of mancozeb to soybean rust.
Two doses were tested (1.5 and 2.0 kg/ha) with various numbers of mancozeb applications. The effect of mancozeb (1.5 kg/ha), incorporated into commercial mixtures was also tested.
The experiments were conducted with soybean cultivar Monsoy 9144 RR. Mancozeb formulation 750 WDG (water dispersible granules) was used, commercially available, for application of mancozeb according to Tables 6 and 7.

[8] = spore germination, average of five isolates
[9] = spore germination, isolate 01/QTZ, average of two experiments
[10] = spore germination, isolate 02/ONX
[11] = spore germination, isolate 03/HZT
[12] = spore germination, isolate 04/GUA
[13] = spore germination, average of five isolates, read-out: CI50 Average
[14] = spore germination, isolate 01/QTZ, average of two experiments, read-out: CI50 isolate 01/QTZ
[15] = spore germination, isolate 02/ONX, read-out: CI50 isolate 02/ONX
[16] = spore germination, isolate 03/HZT, read-out: CI50 isolate 03/HZT
[17] = spore germination, isolate 04/GUA, read-out: CI50 isolate 04/GUA
[18] = average of five isolates, read-out: IC50 Average
[19] = isolate 01/F30, average of two experiments, read-out: IC50 isolate 01/F30
[20] = isolate 02/RZ, read-out: IC50 isolate 02/RZ
[21] = isolate 03/SF, read-out: IC50 isolate 03/SF
[22] = isolate 04/F52, read-out: IC50 isolate 04/F52
[23] = isolate 05/VQ, read-out: IC50 isolate 05/VQ

| Molecule | Reduction factor of the sensitivity, isolate 01/QTZ ([1]; isolate 01/QTZ) | Reduction factor of the sensitivity, Average ([1]; average of five isolates) | Reduction factor of the sensitivity, isolate 02/ONX ([1]; isolate 02/ONX) | Reduction factor of the sensitivity, isolate 03/HZT ([1]; isolate 03/HZT) | Reduction factor of the sensitivity, isolate 04/GUA ([1]; isolate 04/GUA) | Reduction factor of the sensitivity, isolate 05/CD [1] | IC50 (Drechsiera siccans; [18]) | IC50 (Drechsiera siccans; [19]) | IC50 (Drechsiera siccans; [20]) | IC50 (Drechsiera siccans; [21]) | IC50 (Drechsiera siccans; [22]) | IC50 (Drechsiera siccans; [23]) | other results |
| --- | --- | --- | --- | --- | --- | --- | --- | --- | --- | --- | --- | --- | --- |
| CO/C=C(/C(=O)OC)c1ccccc1COc1cccc(C(F)(F)F)n1 [Picoxystrobin] | A > 53a | >53 a | A > 53 a | A > 53 a | A > 53 a | A > 53 a |  |  |  |  |  |  | CI50 Average [1, 8]: >40 a mg/L; CI50 isolate 01/QTZ [1, 9]: A > 40 a mg/L; CI50 isolate 02/ONX [1, 10]: A > 40 a mg/L; CI50 isolate 03/HZT [1, 11]: A > 40 a mg/L; CI50 isolate 04/GUA [1, 12]: A > 40 a mg/L; CI50 isolate 05/CD ([1]; spore germination): A > 40 a mg/L |
| CO/N=C(/C(=O)OC)c1ccccc1COc1ccccc1C [Kresoxim methyl] | A > 53 a | >53 a | A > 53 a | A > 53 a | A > 53 a | A > 53 a |  |  |  |  |  |  | IC50 [1, 13]: > 40 mg/L; IC50 [1, 14]: > 40 mg/L; IC50 [1, 15]: > 40 mg/L; IC50 [1, 16]: > 40 mg/L; IC50 [1, 17]: > 40 mg/L |
| COC(=O)N(OC)c1ccccc1COc1ccn(-c2ccc(Cl)cc2)n1 [Pyraclostrobin] | D 1.0 b |  | B 1.13 b | C 1.04 b | E 0.77 b | A 1.37 b |  |  |  |  |  |  | IC50 ([1]; read-out: CI50 isolate 05/CD): 1.03 mg/L (≈ 2.66 µM); IC50 [1, 13]: 0.8 mg/L (≈ 2.06 µM); IC50 [1, 14]: 0.75 mg/L (≈ 1.93 µM); IC50 [1, 15]: 0.85 mg/L (≈ 2.19 µM); IC50 [1, 16]: 0.78 mg/L (≈ 2.01 µM); IC50 [1, 17]: 0.58 mg/L (≈ 1.5 µM); IC50 ([1]; taken from Table 4 as sensitivity reference, read-out: CI50 standard of sensitivity): 0.75 mg/L (≈ 1.93 µM) |
| CO/C=C(/C(=O)OC)c1ccccc1Oc1cc(Oc2ccccc2C#N)ncn1 [Azoxystrobin] | A > 53 a | >53 a | A > 53 a | A > 53 a | A > 53 a | A > 53 a |  |  |  |  |  |  | Control efficiency reduced per year (soybean rust [2]): 13.8 % per year; CI50 Average [1, 8]: A > 40 a ^ mg/L; CI50 isolate 01/QTZ [1, 9]: A > 40 a mg/L; CI50 isolate 02/ONX [1, 10]: A > 40 a mg/L; CI50 isolate 03/HZT [1, 11]: A > 40 a mg/L; CI50 isolate 04/GUA [1, 12]: A > 40 a mg/L; CI50 isolate 05/CD ([1]; spore germination): A > 40 a mg/L; Control of soybean rust in the 2013/14 (last) crop (soybean rust [3]): 16% |
| CC(C)(C)C(O)(CCc1ccc(Cl)cc1)Cn1cncn1 (centres unmarked) [Tebuconazole] |  |  |  |  |  |  | 0.57 mg/L (≈ 1.85 µM) | 0.66 mg/L (≈ 2.14 µM) | 0.49 mg/L (≈ 1.59 µM) | 0.65 mg/L (≈ 2.11 µM) | 0.61 mg/L (≈ 1.98 µM) | 0.44 mg/L (≈ 1.43 µM) | Control efficiency reduced per year (soybean rust [2]): 7.2 % per year; Reduction (%) of control (soybean rust [4]): 32.8%; Control of soybean rust, crop 2005/06 (soybean rust [4]): 95.0%; Control of soybean rust, crop 2012/13 (soybean rust [4]): 64.0%; Control (%) (soybean rust [5]): 42%; Severity (%) (soybean rust [5]): 49.9%; IC50 (Beard et al) [6]: 0.25 mg/L (≈ 0.812 µM); IC50 (Hunger & Brown) [6]: 0.19 mg/L (≈ 0.617 µM) |
| OC(Cc1ccccc1Cl)(Cn1nc[nH]c1=S)C1(Cl)CC1 (centres unmarked) [Prothioconazole] |  |  |  |  |  |  | 0.21 mg/L (≈ 0.61 µM) | 0.22 mg/L (≈ 0.639 µM) | < 0.1 mg/L | 0.26 mg/L (≈ 0.755 µM) | 0.25 mg/L (≈ 0.726 µM) | 0.14 mg/L (≈ 0.407 µM) |  |
| CCCC1COC(Cn2cncn2)(c2ccc(Cl)cc2Cl)O1 (centres unmarked) [Propiconazole] |  |  |  |  |  |  | 0.34 mg/L (≈ 0.993 µM) | 0.32 mg/L (≈ 0.935 µM) | 0.51 mg/L (≈ 1.49 µM) | 0.3 mg/L (≈ 0.877 µM) | 0.3 mg/L (≈ 0.877 µM) | 0.3 mg/L (≈ 0.877 µM) | IC50 (Hunger & Brown) [6]: 0.04 mg/L (≈ 0.117 µM) |
| Fc1ccc([C@]2(Cn3cncn3)O[C@H]2c2ccccc2Cl)cc1 (racemic) [Epoxiconazole] |  |  |  |  |  |  | 0.33 mg/L (≈ 1 µM) | 0.28 mg/L (≈ 0.849 µM) | 0.28 mg/L (≈ 0.849 µM) | 0.4 mg/L (≈ 1.21 µM) | 0.32 mg/L (≈ 0.97 µM) | 0.4 mg/L (≈ 1.21 µM) | Reduction (%) of control (soybean rust [4]): 50.0%; Control of soybean rust, crop 2005/06 (soybean rust [4]): 80.0%; Control of soybean rust, crop 2012/13 (soybean rust [4]): 40.0%; IC50 (Beard et al) [6]: 0.19 mg/L (≈ 0.576 µM) |
| CC(C1CC1)C(O)(Cn1cncn1)c1ccc(Cl)cc1 (centres unmarked) [Cyproconazole] |  |  |  |  |  |  | 0.37 mg/L (≈ 1.27 µM) | 0.36 mg/L (≈ 1.23 µM) | 0.47 mg/L (≈ 1.61 µM) | 0.32 mg/L (≈ 1.1 µM) | 0.44 mg/L (≈ 1.51 µM) | 0.29 mg/L (≈ 0.994 µM) | Reduction (%) of control (soybean rust [4]): 45.9%; Control of soybean rust, crop 2005/06 (soybean rust [4]): 96.0%; Control of soybean rust, crop 2012/13 (soybean rust [4]): 52.0%; Control (%) (soybean rust [5]): 38%; Severity (%) (soybean rust [5]): 58.1% |
| manganese ethylene bis(dithiocarbamate)+Zn [mancozeb] |  |  |  |  |  |  |  |  |  |  |  |  | Control of yellow spot of wheat leaf, applied alone (wheat leaf spots): showed the efficiency; Control of soybean rust, applied alone (soybean rust [7]): showed the efficiency |
| CON=C(C(=O)OC)c1ccccc1CON=C(C)c1cccc(C(F)(F)F)c1 [Trifloxystrobin] | A > 53 a | >53 a | A > 53 a | A > 53 a | A > 53 a | A > 53 a |  |  |  |  |  |  | IC50 [1, 13]: > 40 mg/L; IC50 [1, 14]: > 40 mg/L; IC50 [1, 15]: > 40 mg/L; IC50 [1, 16]: > 40 mg/L; IC50 [1, 17]: > 40 mg/L |
